The target of experiment [1] is T1, MTH1 (Homo sapiens, UniProt P36639).
T1 construct: Full length p18 isoform MTH1 (M1-156) with an N-terminal 6-His TEV protease cleavable tag; 6-His (TEV-cleavable) (N, cleaved yes); made in house; host or cells: E. coli Gold BL21(DE3)
The experiment in a line: 2D-NMR (1H-15N SOFAST-HMQC) titration, Kd from chemical shift perturbations. It counts as binding. Particulars: 100 μM 15N-MTH1, 298 K, pH 7.4. The method, then: Uniformly ^15N-labeled MTH1 was prepared as above with the TB media replaced M9 minimal media supplemented with 5 g/l of IsoGro base powder (^15N, 98%, Isotec) and 2 g/l of glucose. NMR samples were 100 μM in 50mM HEPES pH 7.4, 50 mM NaCl, 1 mM TCEP, 0.1 mM EDTA, 0.02% NaN3 and employing 1% d^6-DMSO as a lock signal. Spectra were acquired at 298 K on a Bruker Avance 600 MHz spectrometer running Topspin 2.1, equipped with a 5mm TCI cryoprobe with Z-axis gradients. The protein was titrated with compound stocks (100 mM in d6-DMSO) to give typical final compound concentrations 0, 50, 100, 198, 396, 593, 984, 1949 and 3824 μM; these were measured using ^1H-^15N-SOFAST-HMQC [17] experiments recorded with […] (t2,t1) complex points (in States-TPPI mode), and 9615x1624 Hz (^1H,^15N) spectral widths, (53.4 ms x 30.8 ms) acquisition times, respectively). The affinity of the compounds was determined via simultaneous nonlinear fitting of fast-exchange chemical shift perturbations (typically 5 amide correlations, employing absolute value of the linear ^1H,^15N chemical shift vector), with the GraFit package against compound concentration using a mass action binding isotherm equation.

Experiment [2] deals with T1, MTH1. The experiment in a line: Biochemical IC50 for fragments (Fig 5).
Experiment [3] addresses T1, MTH1. Put plainly: MTH1 substrate Km determination (PPiLight pyrophosphate detection; malachite green coupled assay). In kind it is biochemical. The conditions noted are these: this publication; 0.2 nM MTH1, substrate 0–300 μM. The method, then: MTH1 substrate Km determination assay conditions were 0.2 nM MTH1 and a concentration range of substrate from 0–300 μM, diluted in MTH1 reaction buffer (100 mM HEPES pH 7.5, 10 mM MgCl, 1 mM DTT and 0.005% Tween 20). After a reaction time of 15 minutes, pyrophosphate (PPi) released by the reaction was detected using the PPiLight inorganic pyrophosphate assay kit from Lonza and luminescence was monitored using the Perkin Elmer EnVision multimode plate reader. Substrates dGTP and 2-OH—dATP were sourced from Jena Bioscience. Substrates 8-oxo-dGTP, 8-oxo-rGTP, 8-oxo-dATP, 8-oxo-rATP and 2-OH-rATP were sourced from TriLink BioTechnologies.
All oxidised ATP-derived substrates were then tested using an assay format based on the enzymatic hydrolysis of the nucleotide substrate by purified human recombinant MTH1 to form the corresponding monophosphate nucleotide and pyrophosphate. An excess of inorganic pyrophosphatase was added to the assay, which allows the quantification of released inorganic phosphate as a measure of product levels in a coupled enzymatic assay. Inorganic phosphate was measured using an absorbance assay based on malachite green as described by Baykov et al.. The assay buffer in which MTH1, inorganic pyrophosphatase and substrates were diluted consisted of 100mM Tris at pH 7.4, 40 mM NaCl, 10 mM MgCl, 0.005% Tween 20 and 1 mM DTT. The final conditions in the assay during enzymatic incubation were 0.2 nM recombinant human MTH1, a three fold dilution range of 0–300 μM oxidised nucleotide substrate and 0.2U per ml inorganic pyrophosphatase.

Experiment [4] concerns the target T1, MTH1. Particulars: literature value, cited from earlier work.
Experiment [5] addresses T2, Histidine-tagged MTH1 (isoform p18 (M1-V156)) (Homo sapiens, UniProt P36639).
T2 construct: Histidine-tagged MTH1 (isoform p18 (M1-V156)) was immobilized; made in house; host or cells: E. coli Gold BL21(DE3)
The experiment in a line: Surface plasmon resonance (SPR) equilibrium binding. Particulars: steady-state, 1:1 Langmuir fit. On the procedure:
SPR experiments were performed using a Biacore T200 biosensor (GE Healthcare). Series S NTA sensor chips (GE Healthcare) were used. All experiments were carried out using assay buffer containing; 50 mM HEPES pH 7.5, 150 mM NaCl, 0.005% Tween-20 (v/v) and 1% DMSO (v/v) as running buffer. Typically, 10 mM DMSO stocks of compounds were diluted 1:100 (v/v) in 50 mM HEPES pH 7.5, 150 mM NaCl, 0.005% Tween-20 (v/v) to form 100 μM intermediate stocks with final DMSO concentration of 1% (v/v). The intermediate solutions were then subsequently diluted using assay buffer to achieve final concentration range.
Histidine-tagged MTH1 (isoform p18 (M1-V156)) was immobilized as the ligand onto NTA sensor chips using a capture coupling method. Assay buffer was used as immobilization buffer. The nitrilotriacetic (NTA) surface was first activated with a 2-min injection of 500 μM NiCl2 in running buffer before the carboxymethyl dextran surface was activated with a 7-min injection of a 1:1 ratio of 0.4 M EDC and 0.1 M NHS. His-tagged protein was diluted into running buffer to a concentration of 20 μg/mL and immobilized to the surface with a 7-min injection. Remaining activated groups were blocked with two consecutive 60-sec pulses of 0.5 M Ethanolamine. Typical immobilization levels ranged from 500 to 3000 resonance units (RU).
Biacore T200 Evaluation software (GE Healthcare) was used for data processing and analysis. Equilibrium binding analysis was analyzed by plotting steady-state response level vs. compound concentration and fitting to the Langmuir equation (describing simple 1:1 binary interaction).

Several values for one entry are separate records, joined by “and”; a condition that tells them apart may be missing. Identical values can stand only once. Like-named read-outs stand apart in the source and are kept apart here.

Regarding `Cn1c(=O)[nH]c2c(=O)[nH]c(N)nc21` [Compound 1], the Kd in experiment [1] amounted to 400 µM. The compound also yielded an IC50 in experiment [2] greater than 100 µM.

Regarding `Nc1[nH]c(=O)nc2c1ncn2[C@H]1C[C@H](O)[C@@H](COP(=O)(O)OP(=O)(O)OP(=O)(O)O)O1` [Compound 2-OH-dATP, 2-OH-dATP], the Michaelis-Menten constant (Km) in experiment [3] was 14 ± 6 µM; in experiment [4] (ref [4],[34]), 8.3 µM.

Regarding `Nc1[nH]c(=O)nc2c1ncn2[C@@H]1O[C@H](COP(=O)(O)OP(=O)(O)OP(=O)(O)O)[C@@H](O)[C@H]1O` [Compound 2-OH-rATP, 2-OH-rATP], the Km in experiment [3] is 13.4 µM and 13 µM; in experiment [4] (ref [4],[34]), 4.3 µM.

Take `Cn1cnc2c(O)nc(N)nc21` [Compound 2]: in experiment [1], the Kd is 1100 µM. In experiment [2], this compound displayed an IC50 greater than 100 µM.

For `CNc1nc2c(ncn2C)c(=O)[nH]1` [Compound 3], the Kd in experiment [1] was 82 ± 6 µM; in experiment [5], 24 ± 0.4 µM. In experiment [2], this compound came in with a concentration for half-maximal inhibition (IC50) of 59 µM.

In the case of `CN(C)c1nc2c(ncn2C)c(=O)[nH]1` [Compound 4], the Kd in experiment [1] was found to be 2200 µM. In experiment [2], the IC50 is greater than 100 µM.

Take `CC(=O)Nc1ccc2c(c1)ncn2C` [Compound 5]: the Kd in experiment [1] is 95 ± 35 µM; in experiment [5] it was greater than 40 µM. In addition, the IC50 in experiment [2] was greater than 80 µM.

In the case of `Cc1cc(OCCCO)nc(N)n1` [Compound 6], the figures for the Kd in experiment [1] and in experiment [5] were less than 5 µM and 1.7 µM, respectively. In addition, in experiment [2], the IC50 was 4.5 µM.

As for `CNc1cc(=O)[nH]c(=O)[nH]1` [Compound 7], the Kd in experiment [1] is less than 5 µM; in experiment [5], 0.81 µM. This compound also registered an IC50 in experiment [2] of 1.5 µM.

With `Nc1ncnc2c1[nH]c(=O)n2[C@H]1C[C@H](O)[C@@H](COP(=O)(O)OP(=O)(O)OP(=O)(O)O)O1` [Compound 8-oxo-dATP, 8-oxo-dATP], the Michaelis constant (Km) in experiment [3] was 7.6 ± 0.5 µM; in experiment [4] (ref [4],[34]) it was 15.2 µM; in experiment [4] (ref [26]) it was 13.9 µM.

For the compound `Nc1ncnc2c1[nH]c(=O)n2[C@@H]1O[C@H](COP(=O)(O)OP(=O)(O)OP(=O)(O)O)[C@@H](O)[C@H]1O` [Compound 8-oxo-rATP, 8-oxo-rATP], the Michaelis constant (Km) in experiment [3] was 241 µM and 240 µM; in experiment [4] (ref [4],[34]) it was 51 µM.

Turning to `Nc1nc2c([nH]c(=O)n2[C@@H]2O[C@H](COP(=O)(O)OP(=O)(O)OP(=O)(O)O)[C@@H](O)[C@H]2O)c(=O)[nH]1` [Compound 8-oxo-rGTP, 8-oxo-rGTP], the Km was 82 ± 45 µM in experiment [3] and 55 µM in experiment [4] (ref [4],[34]).

In the case of `Nc1nc2c(ncn2[C@H]2C[C@H](O)[C@@H](COP(=O)(O)OP(=O)(O)OP(=O)(O)O)O2)c(=O)[nH]1` [dGTP], the Km in experiment [3] was 420 µM; in experiment [4] (ref [4],[34]) it was 258 µM.

The term Kd denotes the equilibrium constant for the complex coming apart. As a reminder, the IC50 is the midpoint of a concentration-inhibition curve. The Km is the concentration of substrate that gives half-maximal velocity.

The record behind these values is PMC4801406, “MTH1 Substrate Recognition—An Example of Specific Promiscuity” (PLoS ONE, 2016).
